From US9910031B2, “Compositions and methods for modulating c-Rel-dependent cytokine production” (Synta Pharmaceuticals Corporation, priority 2003, dated 2018)

Legend:
[1] = test system: human IL-12 p40 promoter; assay: IL-12 p40 promoter/luciferase reporter in transiently transfected RAW264.7 cells; assay type: cell-based, murine; settings: for p40 promoter-driven luciferase expression: RAW264.7, IFN-γ/LPS or IFN-γ/SAC
Description: As a result of the Northern blot findings, we undertook a study of the p35 and p40 promoter activities. We transiently transfected the murine macrophage cell line RAW264.7 with DNA constructs in which the p35 and p40 promoters directed expression of the luciferase reporter gene. The RAW264.7 cell line was obtained from American Type Culture Collection (Manassas, Va.) and was cultured in DMEM (ATCC, Manassas, Va.) supplemented with 10% FCS (ATCC, Manassas, Va.), and 1% penicillin/Streptomycin (Gibco-BRL, New York, N.Y.).
Both p35 and p40 promoter-driven luciferase production in response to stimulation were determined in the presence or absence of Compound 1 and Compound 2. To construct the human IL-12 p35 and p40 promoter/luciferase reporter constructs, we generated p35 (−1.5 kb to +3 bp) and p40 (−1.3 kb to +56 bp) promoter fragments, which contained several sequence motifs of the human IL-12 p35 and p40 genes. The fragments were generated by PCR from genomic DNA obtained from human PBMC using primers as follows: IL-12 p35 1.5 kb-F: 5′-[…]-3′(SEQ ID NO:3) and IL-12 p35 1.5 kb-R: 5′-[…]-3′ (SEQ ID NO:4); IL-12 p40 −1.3 kb-F: 5′-[…]-3′ (SEQ ID NO:5) and IL-12 p40 1.3 kb-R: 5′-[…]-3′ (SEQ ID NO:6). The deletion in the p40 promoter reporter constructs were generated by PCR with primers as follows: IL-12 p40 −250 bp to +56 bp (p40/−250 bp) F: 5′-[…]-3′(SEQ ID NO:7) and IL-12 p40 −250 bp to +56 bp (p401/−250 bp) R: 5′-TGCTCTGGGCAGGACGGAG-3′ (SEQ ID NO:8); IL-12 p40 −150 bp to +56 bp (p40/−150 bp) F: 5′-[…]-3′ (SEQ ID NO:9) and IL-12 p40 −150 bp to +56 bp (p40/−150 bp) R: 5′-TGCTCTGGGCAGGACGGAG-3′(SEQ ID NO:10). The resulting PCR products were ligated upstream of the luciferase gene in pGL3-Basic vector (Promega). All constructs were verified by DNA sequencing.
Transfection was accomplished using SuperFect Transfection Reagent (Qiagen) by the described protocol. Total amount of transfect DNA was kept constant by including the respective control plasmids without insertions.
Cells were co-transfected with the vector pCMV (BD Biosciences Clontech) in which the constitutively active CMV promoter directs β-galactosidase expression for the monitoring of transfection efficiency. Luciferase and β-galactosidase activity were determined in cell extracts prepared according to the Luciferase assay system (Promega) and Luminescent n-gal Detection system (BD Biosciences Clontech). Luciferase activity was then normalized using the β-galactosidase value. […] ELISA was performed by the following method. Human IL-12 p70 (heterodimer) was assayed using ELI-PAIR kit from Cell Sciences (Norwood, Mass.), according to the manufacturer's instructions. Human IL-12 p40 was assayed using ELISA kit from Cell Sciences (Norwood, Mass.) according to the manufacturer's instructions.
We then set out to analyze the IL-12 transcriptional promoter elements that played a role in this effect. We performed deletion analyses using the p40 promoter. This promoter, rather than the p35 promoter, was chosen because the transcriptional elements are better defined in the p40 promoter. To identify the IL-12 inhibitor responsive elements involved in the p40 gene transcription activation, three different promoters were constructed and transiently transfected into RAW264.7 cells.
To assess the role of individual p40 promoter transcription elements in more detail, mutations within many of these elements have been generated. […]

[2] = test system: IL-12 production in THP-1 cells; assay: Inhibition of IL-12 production in THP-1 cells (ELISA); assay type: cell-based; settings: Homo sapiens, read-out: IC50 against IL-12 production
Text: The foregoing and other useful combination therapies will be understood and appreciated by those of skill in the art. Potential advantages of such combination therapies include the ability to use less of each of the individual active ingredients to minimize toxic side effects, synergistic improvements in efficacy, improved ease of administration or use and/or reduced overall expense of compound preparation or formulation. The biological activities of a compound of this invention can be evaluated by a number of cell-based assays. One of such assays can be conducted using cells from human peripheral blood mononuclear cells (PBMC) or human monocytic cell line (THP-1). The cells are stimulated with a combination of human interferon-γ (IFN-γ) and lipopolysaccharide or a combination of IFN-γ and Staphylococcus aureus Cowan I in the presence of a test compound. The level of inhibition of IL-12 production can be measured by, e.g., determining the amount of p70 by using a sandwich ELBA assay with anti-human IL-12 antibodies. IC50 of the test compound can then be determined. Specifically, PBMC or THP-1 cells are incubated with the test compound. Cell viability was assessed using the bioreduction of MTS [3-(4,5-dimethylthiazol-2-yl)-5-(3-carboxymethoxyphenyl)-2-(4-sulfophenyl)-2H-tetrazolium] (Promega, Madison, Wis.). […]

SMILES | p40 promoter-driven luciferase expression [1] | effect of ICSBP over-expression on inhibition of p40 expression ([1]; co-transfection of ICSBP with IL-12 promoter-Luc reporter) | inhibition of expression in NFκB-element mutant p40 promoter construct ([1]; site-directed mutant of the NFκB element, IFN-γ/LPS) | IC50 [2] | IL-12 p40 promoter-driven luciferase activity, deletion construct ([1]; RAW264.7, IFN-γ/LPS, promoter containing Ets-2, PU-1, NF-κB and API elements)
Cc1cccc(C=NNc2cc(N3CCOCC3)nc(OCCc3ccccn3)n2)c1 [Compound 2, N-(3-methyl-benzylidene)-N′-[6-morpholin-4-yl-2-(2-pyridin-2-yl-ethoxy)-pyrimidin-4-yl]-hydrazine] | suppressed | decreased the inhibition | reduced | 0.01 µM | –
C(=NNc1nc(OCCc2ccccn2)nc(N2CCOCC2)n1)c1c[nH]c2ccccc12 [Compound 1, N-(1H-indol-3-ylmethylene)-N′-[4-morpholin-4-yl-6-(2-pyridin-2-yl-ethoxy)-[1,3,5]triazin-2-yl]-hydrazine] | suppressed | – | – | 0.04 µM | significantly suppressed
